Tests used:
[1] = molecular target: T1, recombinant human KIF18A (Homo sapiens, UniProt Q8NI77); assay: Inhibition of KIF18A enzyme activity (ADP-Glo assay); type: biochemical; settings: recombinant human KIF18A 100 nM, ATP 60 µM, tubulin, paclitaxel; read-out: IC50
T1 construct: purchased GenScript

[2] = tested on: OVCAR-3 cells; assay: Inhibition of OVCAR-3 cell proliferation (CellTiter-Glo cell viability); type: cell-based; settings: Homo sapiens; OVCAR-3 cells (TP53 R248Q mutation), 72 hours culture with compound; read-out: IC50
In short: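 OVCAR-3 cells (TP53 R248Q) in RPMI 1640 with 10% FBS were seeded at 1000 cells/well, grown overnight, then exposed to compound (final 1000 nM–0.015 nM) for 72 h at 37°C, 5% CO2. Viability was read by CellTiter-Glo luminescence. IC50 came from nonlinear regression of inhibition relative to 0.3% DMSO control.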

[3] = tested on: HT-29 cells; assay: Inhibition of HT-29 cell proliferation (CellTiter-Glo cell viability); type: cell-based; settings: Homo sapiens; HT-29 cells (TP53 R273H mutation), 120 hours culture with compound; read-out: IC50
In short: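 HT-29 cells (TP53 R273H) in McCOY's 5A with 10% FBS, seeded 1000 cells/well overnight, then exposed to compound at 1000 nM–0.015 nM final for 120 hours at 37°C. Viability by CellTiter-Glo luminescence versus 0.3% DMSO control; IC50 by nonlinear regression of log concentration–inhibition.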

T1 sequence (Q8NI77 whole entry): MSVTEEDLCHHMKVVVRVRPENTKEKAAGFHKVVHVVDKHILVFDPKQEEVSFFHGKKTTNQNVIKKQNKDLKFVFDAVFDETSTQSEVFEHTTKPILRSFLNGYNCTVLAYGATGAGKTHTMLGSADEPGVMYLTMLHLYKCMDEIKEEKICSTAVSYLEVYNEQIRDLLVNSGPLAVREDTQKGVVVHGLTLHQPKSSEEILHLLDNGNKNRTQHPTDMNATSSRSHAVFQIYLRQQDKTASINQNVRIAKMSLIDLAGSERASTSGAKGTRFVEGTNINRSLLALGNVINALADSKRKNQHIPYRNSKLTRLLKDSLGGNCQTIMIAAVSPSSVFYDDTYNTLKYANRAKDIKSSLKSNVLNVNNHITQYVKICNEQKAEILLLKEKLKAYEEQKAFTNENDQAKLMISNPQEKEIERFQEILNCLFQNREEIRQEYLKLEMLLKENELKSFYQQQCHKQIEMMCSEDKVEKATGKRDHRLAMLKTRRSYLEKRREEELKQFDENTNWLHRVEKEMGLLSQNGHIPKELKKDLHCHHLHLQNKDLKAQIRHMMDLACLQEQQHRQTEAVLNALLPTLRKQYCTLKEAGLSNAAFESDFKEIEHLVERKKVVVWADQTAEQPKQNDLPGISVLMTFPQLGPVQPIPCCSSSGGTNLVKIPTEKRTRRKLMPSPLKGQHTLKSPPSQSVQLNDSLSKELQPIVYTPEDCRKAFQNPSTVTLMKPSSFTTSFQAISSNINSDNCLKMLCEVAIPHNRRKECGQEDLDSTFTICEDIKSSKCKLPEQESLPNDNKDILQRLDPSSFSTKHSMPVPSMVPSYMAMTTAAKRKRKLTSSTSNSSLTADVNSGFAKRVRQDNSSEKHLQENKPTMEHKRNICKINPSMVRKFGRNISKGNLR
T1 sequence (P68363 whole entry partner): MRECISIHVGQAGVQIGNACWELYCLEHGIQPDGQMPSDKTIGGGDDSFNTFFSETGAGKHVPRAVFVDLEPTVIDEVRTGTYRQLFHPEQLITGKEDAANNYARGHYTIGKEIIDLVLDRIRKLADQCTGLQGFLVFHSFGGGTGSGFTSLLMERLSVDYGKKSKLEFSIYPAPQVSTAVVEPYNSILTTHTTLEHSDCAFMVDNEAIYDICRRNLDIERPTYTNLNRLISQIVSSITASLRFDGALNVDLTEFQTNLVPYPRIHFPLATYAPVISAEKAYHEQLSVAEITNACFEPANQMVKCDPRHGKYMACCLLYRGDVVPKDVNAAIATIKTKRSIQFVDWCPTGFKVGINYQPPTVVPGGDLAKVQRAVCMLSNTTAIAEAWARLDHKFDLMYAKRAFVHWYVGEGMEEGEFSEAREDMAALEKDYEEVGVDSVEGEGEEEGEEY
T1 sequence (Q9BVA1 whole entry partner): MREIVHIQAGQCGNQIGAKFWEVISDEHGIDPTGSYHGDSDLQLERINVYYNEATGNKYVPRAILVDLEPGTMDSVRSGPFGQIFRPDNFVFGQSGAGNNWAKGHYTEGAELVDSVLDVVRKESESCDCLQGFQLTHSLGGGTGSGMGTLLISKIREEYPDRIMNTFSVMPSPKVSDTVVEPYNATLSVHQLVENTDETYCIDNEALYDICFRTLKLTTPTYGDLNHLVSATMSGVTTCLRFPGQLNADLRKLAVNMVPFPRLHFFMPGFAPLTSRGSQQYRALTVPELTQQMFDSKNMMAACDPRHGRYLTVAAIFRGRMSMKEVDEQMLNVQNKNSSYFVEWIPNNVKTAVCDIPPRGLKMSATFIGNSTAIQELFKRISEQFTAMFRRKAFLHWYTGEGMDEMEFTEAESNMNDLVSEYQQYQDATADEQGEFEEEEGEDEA

SMILES | IC50 [1] [nM] | IC50 [2] [nM] | IC50 [3] [nM]
CCS(=O)(=O)Nc1ccc(C(=O)Nc2ccc(-c3ncn(C)n3)c(OCC(F)(F)F)c2)c(N2CCC3(CC2)CC3)c1 [Example 47, 4-(ethylsulfonamido)-N-(4-(1-methyl-1H-1,2,4-triazol-3-yl)-3-(2,2,2-trifluoroethoxy)pheny 1)-2-(6-azaspiro[2.5]octan-6-yl)benzamide] | 155 | 5.8 | 0.54
CCS(=O)(=O)Nc1ccc(C(=O)Nc2ccc(-c3ncccn3)c(OCC(F)(F)F)c2)c(N2CCC3(CC2)CC3)c1 [Example 53, 4-(ethylsulfonamido)-N-(4-(pyrimidin-2-yl)-3-(2,2,2-trifluoroethoxy)phenyl)-2-(6-azaspiro[2.5]octan-6-yl)benzamide] | 142 | 9.5 | 6.8

Source: patent EP4748837A1, “AROMATIC AMIDE DERIVATIVE, AND PREPARATION METHOD THEREFOR AND USE THEREOF” (Zhejiang Hisun Pharmaceutical Co., Ltd., priority 2023, dated 2025)
